In patent US20100298602A1, “SYSTEMS AND METHODS FOR MICROFLUIDIC CRYSTALLIZATION” (Massachusetts Institute of Technology, priority 2009, published 2010):

Assay: Seeded continuous crystallization in a microfluidic device; growth rates from optical images
Conditions: room temperature, water/ethanol antisolvent
[1] = Supersaturation S = ln(C/Cs,γ) = 0.319

## NCC(=O)O [γ-Glycine, glycine]
[1]
  G<00-1>,exp growth rate: 4.4 ± 1.8 μm/min
  G{100, 010},exp growth rate: 3.2 ± 1.6 μm/min
Supersaturation S = ln(C/Cs,γ) = 0.389
  G{100, 010},exp growth rate: 5.5 ± 1.6 μm/min

## NCC(=O)O [α-Glycine, glycine]
S = ln(C/Cs,α) = 0.33
  G<010>,exp growth rate of <010> crystal plane: 0.40 ± 0.25 μm/min
  G<011>, exp growth rate of <011> crystal plane: 2.22 ± 0.91 μm/min
S = ln(C/Cs,α) = 0.56
  G<010>,exp growth rate of <010> crystal plane: 0.74 ± 0.16 μm/min
  G<011>, exp growth rate of <011> crystal plane: 3.34 ± 0.43 μm/min
S = ln(C/Cs,α) = 0.64
  G<010>,exp growth rate of <010> crystal plane: 0.66 ± 0.23 μm/min
  G<011>, exp growth rate of <011> crystal plane: 4.78 ± 1.35 μm/min

## NCC(=O)O [β-Glycine, glycine]
S = ln(C/Cs,α) = 0.30
  G<010> experimental growth rate: 194 ± 55 μm/min
S = ln(C/Cs,α) = 0.39
  G<010> experimental growth rate: 235 ± 43 μm/min
S = ln(C/Cs,α) = 0.47
  G<010> experimental growth rate: 250 ± 52 μm/min
